Results published in patent publication US20090068290A1, “BIFEPRUNOX DOSES FOR TREATING SCHIZOPHRENIA” (priority 2006, published 2009).

Columns and labels:
[1] = tested on: adult subjects with schizophrenia; assay: PANSS total score, Clinical Study One (6-week, risperidone-referenced); type: in vivo, human; details: for Change from Baseline in PANSS Total Score, Mean (S.D.) / Change from Baseline in PANSS Total Score, Median / PANSS Total Score, Trt Effect (bifeprunox minus placebo mean change from Baseline): ITT; for PANSS Total Score, Trt Effect (bifeprunox minus placebo mean change from Baseline): ANCOVA
Method: There were five treatment groups in this study. […] Study medication was administered once daily. After Baseline measurements were performed, the titration phase was begun. Bifeprunox treated subjects were titrated up to 5 mg, 10 mg or 20 mg according to a standardized titration schedule (Day 1: 0.125 mg, Day 2: 0.25 mg, Day 3: 0.5 mg, Day 4: 1.0 mg, Day 5: 2.0 mg, Day 6: 5.0 mg, Day 7: 10.0 mg, Day 8: 20 mg). When the assigned dose was reached, subjects were maintained at that dose for the remainder of the six-week treatment period.
Test Product. Dose and Mode of Administration: Bifeprunox tablets, total daily dose 0.125 mg to 20 mg administered orally using a once daily dosing regimen.
The change in the Positive and Negative Symptom Scale (PANSS) total score, from baseline to endpoint, was the primary outcome measure. Secondary efficacy measures included: PANSS positive, PANSS negative, PANSS general psychopathology (GPP) score, PANSS-derived Brief Psychiatric Rating Scale (BPRS) score, Clinical Global Impressions-Severity of Illness (CGI-S), CGI-Improvement (CGI-I) scores, and responder rates. Safety and tolerability evaluations included extrapyramidal symptoms (EPS), weight gain, lipid profile, and serum prolactin.

[2] = tested on: adult subjects with schizophrenia; assay: Calgary Depression Scale for Schizophrenia (CDSS), Clinical Study Two; type: in vivo, human; details: LOCF; for Change from Baseline in CDSS Total Score, Mean (SD) / Change from Baseline in CDSS Total Score, Median: 30 mg
Method: Rating scale assessments were performed weekly, except for week 5, to measure the change from baseline to endpoint of the PANSS total score. Other assessments included: PANSS positive symptom subscale score, PANSS negative symptom subscale score, PANSS general pschopathology subscale score, BPRS total score, BPRS psychosis score, the CGI-S score, the CGI-I score, responder rates based on the PANSS total score, and the Calgary Depression Scale for Schizophrenia (CDSS). […]
Subjects who completed this study had the option to continue in the long-term. […] Risperidone-treated subjects were titrated from 2 mg to 6 mg daily over a three-day period and were subsequently maintained at 6 mg/day for the remainder of the treatment period. […] Blood samples were also obtained at Screening/Baseline, Week 3, and Week 6 for clinical laboratory assessments.

[3] = Bifeprunox 10 mg, Endpoint LOCF
[4] = Bifeprunox 20 mg, Endpoint LOCF

With `O=c1[nH]c2cccc(N3CCN(Cc4cccc(-c5ccccc5)c4)CC3)c2o1` [Bifeprunox, 7-[4-([1,1′-biphenyl]-3-ylmethyl)-1-piperazinyl]-2(3H)-benzoxazolone] the “Change from Baseline in PANSS Total Score, Mean (S.D.)” value (shortened to “Change from Baseline … (S.D.)”) ([1]; Bifeprunox 5 mg, Endpoint LOCF) was −9.7 (17.5), the “Change from Baseline in PANSS Total Score, Median” value ([1]; Bifeprunox 5 mg, Endpoint LOCF) was −8 and the “PANSS Total Score, Trt Effect (bifeprunox minus placebo mean change from Baseline)” value ([1]; Bifeprunox 5 mg, Endpoint LOCF) was −4.1. The “Change from Baseline … (S.D.)” value ([1]; Bifeprunox 5 mg, Week 1, LOCF) was −3.9 (13.1), the “Change from Baseline in PANSS Total Score, Median” value ([1]; Bifeprunox 5 mg, Week 1, LOCF) was −4 and the “Change from Baseline … (S.D.)” value ([1]; Bifeprunox 5 mg, Week 2, LOCF) was −6.7 (14.9). For the same compound, the “Change from Baseline in PANSS Total Score, Median” value ([1]; Bifeprunox 5 mg, Week 2, LOCF) was −7, the “Change from Baseline … (S.D.)” value ([1]; Bifeprunox 5 mg, Week 3, LOCF) was −7.7 (16.1) and the “Change from Baseline in PANSS Total Score, Median” value ([1]; Bifeprunox 5 mg, Week 3, LOCF) was −7. The “Change from Baseline … (S.D.)” value ([1]; Bifeprunox 5 mg, Week 4, LOCF) was −8.7 (17.1), the “Change from Baseline in PANSS Total Score, Median” value ([1]; Bifeprunox 5 mg, Week 4, LOCF) was −7 and the “Change from Baseline … (S.D.)” value [1, 3] was −5.0 (18.3). The “Change from Baseline in PANSS Total Score, Median” value [1, 3] was −4, the “PANSS Total Score, Trt Effect (bifeprunox minus placebo mean change from Baseline)” value [1, 3] was 0.6 and the “Change from Baseline … (S.D.)” value ([1]; Bifeprunox 10 mg, Week 1, LOCF) was −2.9 (11.7). For the same compound, the “Change from Baseline in PANSS Total Score, Median” value ([1]; Bifeprunox 10 mg, Week 1, LOCF) was −1, the “Change from Baseline … (S.D.)” value ([1]; Bifeprunox 10 mg, Week 2, LOCF) was −4.2 (14.6) and the “Change from Baseline in PANSS Total Score, Median” value ([1]; Bifeprunox 10 mg, Week 2, LOCF) was −3. The “Change from Baseline … (S.D.)” value ([1]; Bifeprunox 10 mg, Week 3, LOCF) was −4.6 (17.4), the “Change from Baseline in PANSS Total Score, Median” value ([1]; Bifeprunox 10 mg, Week 3, LOCF) was −3 and the “Change from Baseline … (S.D.)” value ([1]; Bifeprunox 10 mg, Week 4, LOCF) was −4.1 (17.2). For the same compound, the “Change from Baseline in PANSS Total Score, Median” value ([1]; Bifeprunox 10 mg, Week 4, LOCF) was −5, the “Change from Baseline … (S.D.)” value [1, 4] was −11.3 (17.0) and the “Change from Baseline in PANSS Total Score, Median” value [1, 4] was −11. The “PANSS Total Score, Trt Effect (bifeprunox minus placebo mean change from Baseline)” value [1, 4] was −5.8, the “Change from Baseline … (S.D.)” value ([1]; Bifeprunox 20 mg, Week 1, LOCF) was −6.3 (11.5) and the “Change from Baseline in PANSS Total Score, Median” value ([1]; Bifeprunox 20 mg, Week 1, LOCF) was −5. The “Change from Baseline … (S.D.)” value ([1]; Bifeprunox 20 mg, Week 2, LOCF) was −9.0 (14.0), the “Change from Baseline in PANSS Total Score, Median” value ([1]; Bifeprunox 20 mg, Week 2, LOCF) was −8 and the “Change from Baseline … (S.D.)” value ([1]; Bifeprunox 20 mg, Week 3, LOCF) was −11.2 (14.5). The “Change from Baseline in PANSS Total Score, Median” value ([1]; Bifeprunox 20 mg, Week 3, LOCF) was −11, the “Change from Baseline … (S.D.)” value ([1]; Bifeprunox 20 mg, Week 4, LOCF) was −11.2 (15.9) and the “Change from Baseline in PANSS Total Score, Median” value ([1]; Bifeprunox 20 mg, Week 4, LOCF) was −11. For the same compound, the “superiority to placebo, primary efficacy endpoint (PANSS total score)” value ([1]; bifeprunox 5 mg, 6 weeks) was “did not show superiority to placebo”, the “improvement compared to placebo, any efficacy endpoint” value ([1]; bifeprunox 10 mg, 6 weeks) was “did not show statistically greater improvement for any efficacy endpoint” and the “efficacy compared to placebo (PANSS total and subscale scores)” value ([1]; bifeprunox 20 mg once daily, 6 weeks) was “effective in reducing both positive and negative symptoms of schizophrenia”. The “greater improvement from Baseline in PANSS total score compared with placebo” value ([1]; bifeprunox 20 mg, 6 weeks) was 5.8 point, the “reduction in the PANSS total score compared to placebo” value ([1]; bifeprunox 20 mg, 6 weeks (Example 4)) was “statistically significant (P<0.05) compared to placebo at Week 3 and Week 6/endpoint” and the “CDSS Total Score, Trt Effect” value ([2]; 30 mg versus placebo, Week 6/Endpoint) was −0.38. For the same compound, the “Change from Baseline in CDSS Total Score, Mean (SD)” value (“Change from Baseline … (SD)” for short) ([2]; Week 1) was −0.01 (2.90), the “Change from Baseline in CDSS Total Score, Median” value ([2]; Week 1) was 0.0 and the “Change from Baseline … (SD)” value ([2]; Week 2) was −0.51 (3.37). For the same compound, the “Change from Baseline in CDSS Total Score, Median” value ([2]; Week 2) was 0.0, the “Change from Baseline … (SD)” value ([2]; Week 3) was −0.51 (3.56) and the “Change from Baseline in CDSS Total Score, Median” value ([2]; Week 3) was 0.0. For the same compound, the “Change from Baseline … (SD)” value ([2]; Week 4) was −0.63 (3.48), the “Change from Baseline in CDSS Total Score, Median” value ([2]; Week 4) was 0.0 and the “Change from Baseline … (SD)” value ([2]; Week 6/Endpoint) was −0.66 (3.64).
